Consider 19 compounds from patent US9796733B2, “Imidazo-pyrazine derivatives useful as soluble guanylate cyclase activators” (Merck Sharp & Dohme Corp., priority 2014, dated 2017).

This assay concerns the target T1, sGC α1/β1 heterodimer (Homo sapiens, UniProt Q02108+Q02153).
T1 construct: expressed in transfected cells; host or cells: CHO-K1 (clone #7, CHO-K1/sGC)
T1 sequence (Q02108 1-690): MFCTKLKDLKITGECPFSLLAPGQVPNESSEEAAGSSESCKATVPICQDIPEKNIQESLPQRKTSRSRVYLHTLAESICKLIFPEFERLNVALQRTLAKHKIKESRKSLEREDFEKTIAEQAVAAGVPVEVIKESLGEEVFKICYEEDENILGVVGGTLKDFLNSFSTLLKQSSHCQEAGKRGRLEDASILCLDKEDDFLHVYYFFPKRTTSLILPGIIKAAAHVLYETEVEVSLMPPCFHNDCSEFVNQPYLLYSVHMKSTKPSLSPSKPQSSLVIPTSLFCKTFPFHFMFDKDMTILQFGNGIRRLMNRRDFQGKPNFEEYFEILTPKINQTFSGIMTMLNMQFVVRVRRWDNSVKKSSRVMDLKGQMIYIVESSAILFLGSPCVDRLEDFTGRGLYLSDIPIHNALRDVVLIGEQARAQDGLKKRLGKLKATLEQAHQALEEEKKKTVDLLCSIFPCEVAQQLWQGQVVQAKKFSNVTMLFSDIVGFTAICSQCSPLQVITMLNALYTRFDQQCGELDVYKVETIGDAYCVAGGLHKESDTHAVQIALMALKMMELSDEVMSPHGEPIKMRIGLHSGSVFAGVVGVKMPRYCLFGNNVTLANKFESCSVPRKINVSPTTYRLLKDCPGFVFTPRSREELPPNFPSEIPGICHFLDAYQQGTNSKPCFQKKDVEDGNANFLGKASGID
T1 sequence (Q02153 1-619): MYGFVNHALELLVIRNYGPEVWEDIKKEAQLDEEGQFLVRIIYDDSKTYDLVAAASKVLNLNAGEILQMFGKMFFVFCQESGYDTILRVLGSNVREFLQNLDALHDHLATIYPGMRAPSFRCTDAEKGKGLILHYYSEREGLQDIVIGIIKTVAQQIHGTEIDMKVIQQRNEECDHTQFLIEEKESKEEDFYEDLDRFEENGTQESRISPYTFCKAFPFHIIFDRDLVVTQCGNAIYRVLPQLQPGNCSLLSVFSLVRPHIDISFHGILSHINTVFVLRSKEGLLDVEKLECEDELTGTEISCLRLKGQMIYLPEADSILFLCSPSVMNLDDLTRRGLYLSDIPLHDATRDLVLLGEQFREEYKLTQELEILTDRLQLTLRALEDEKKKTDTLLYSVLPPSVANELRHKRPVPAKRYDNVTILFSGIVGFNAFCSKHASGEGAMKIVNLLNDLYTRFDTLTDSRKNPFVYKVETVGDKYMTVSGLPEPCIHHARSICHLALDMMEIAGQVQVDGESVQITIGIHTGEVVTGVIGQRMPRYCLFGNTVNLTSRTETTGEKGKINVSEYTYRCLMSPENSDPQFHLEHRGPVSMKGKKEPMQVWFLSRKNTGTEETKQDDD
As to the kind of experiment: Cell-based sGC functional assay (CASA assay): cGMP generation in CHO-K1/sGC cells, HTRF detection. The conditions noted are these: for Emax: CHO-K1, percent activation relative to standard Compound A in CHO-K1/sGC cells, read-out: % Act.; for EC50: inflection point (IP) of cGMP generation in CHO-K1/sGC cells, 4P fit, activity expressed as percentage of Compound A. Put shortly:
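cGMP was quantified by HTRF after 1 hr, 37° C exposure of thawed CHO-K1 cells expressing sGC α1/β1 to compound, with or without 1 μM DETA-NO. IBMX (0.5 mM) blocked cGMP breakdown, and DMSO was 2.5% final. Percent of standard Compound A's maximal cGMP was fitted (4P) for inflection point.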

Take `Nc1nc(-c2cn3ccnc3c(CCC(F)(F)C(F)(F)F)n2)nc2c1C(c1nnc(C3CC3)s1)(C1CC1)C(=O)N2` (centres unmarked) [Example 54A, 4-amino-5-cyclopropyl-5-(5-cyclopropyl-1,3,4-thiadiazol-2-yl)-2-(8-(3,3,4,4,4-pentafluorobutyl)imidazo[1,2-a]pyrazin-6-yl)-5H-pyrrolo[2,3-d]pyrimidin-6(7H)-one]: the Emax was 91% and the midpoint of the response, the EC50, lay at 144 nM.
For `Cc1cc(C2(C3CC3)C(=O)Nc3nc(-c4cn5ccnc5c(CCC(F)(F)C(F)(F)F)n4)nc(N)c32)ncc1F` (single isomer, unassigned) [Example 376B, 4-amino-5-cyclopropyl-5-(5-fluoro-4-methylpyridin-2-yl)-2-(8-(3,3,4,4,4-pentafluorobutyl)imidazo[1,2-a]pyrazin-6-yl)-5H-pyrrolo[2,3-d]pyrimidin-6(7H)-one], in that order: 127% and 180 nM.
For `CC1(c2ccc(Cl)cc2)C(=O)Nc2nc(-c3cn4ccnc4cn3)nc(N3CC(F)(F)C3)c21` (single isomer, unassigned) [Example 277A] the same measures were 106% and 469 nM.
Turning to `CN(C)c1nc(-c2cn3ccnc3cn2)nc2c1C(C)(c1ccc(Cl)cc1)C(=O)N2` (centres unmarked) [Example 312A], the Emax was 93% and the EC50 was 25 nM.
For `CCCCc1nc(-c2nc(N)c3c(n2)NC(=O)C3(C)c2ccc(F)cn2)cn2cc(C)nc12` (centres unmarked) [Example 164B, 4-amino-2-(8-butyl-2-methylimidazo[1,2-a]pyrazin-6-yl)-5-(5-fluoropyridin-2-yl)-5-methyl-5H-pyrrolo[2,3-d]pyrimidin-6(7H)-one], in that order: 93% and 81 nM.
For `CC1(c2ccc(Cl)cc2Cl)C(=O)Nc2nc(-c3cn4ccnc4c(CCC(F)(F)F)n3)nc(N)c21` (centres unmarked) [Example 187A, 4-amino-5-(2,4-dichlorophenyl)-5-methyl-2-(8-(3,3,3-trifluoropropyl)imidazo[1,2-a]pyrazin-6-yl)-5H-pyrrolo[2,3-d]pyrimidin-6(7H)-one], in that order: 126% and 1070 nM.
For `CC1(c2ccc(Cl)cc2)C(=O)Nc2nc(-c3cn4ccnc4cn3)nc(NCCC(F)(F)F)c21` (centres unmarked) [Example 289A, 5-(4-chlorophenyl)-2-(imidazo[1,2-a]pyrazin-6-yl)-5-methyl-4-((3,3,3-trifluoropropyl)amino)-5H-pyrrolo[2,3-d]pyrimidin-6(7H)-one] the same measures were 106% and 289 nM.
On to `COc1ccc(C2(C)C(=O)Nc3nc(-c4cn5ccnc5c(CCC(F)(F)C(F)(F)F)n4)nc(N)c32)nc1` (centres unmarked) [Example 248B, 4-amino-5-(5-methoxypyridin-2-yl)-5-methyl-2-(8-(3,3,4,4,4-pentafluorobutyl)imidazo [12-a]pyrazin-6-yl)-5H-pyrrolo[2,3-d]pyrimidin-6(7H)-one], for which the Emax stood at 88% and the EC50 was determined as 82 nM.
Take `CCC(CC)Cc1nc(-c2nc(N)c3c(n2)NC(=O)C3(C)c2ccc(F)cn2)cn2ccnc12` (centres unmarked) [Example 18B, 4-amino-2-(8-(2-ethylbutyl)imidazo[1,2-a]pyrazin-6-yl)-5-(5-fluoropyridin-2-yl)-5-methyl-5H-pyrrolo[2,3-d]pyrimidin-6(7H)-one]: the Emax worked out at 106% and the EC50 came out at 145 nM.
For `Nc1nc(-c2cn3ccnc3c(CCC(F)(F)F)n2)nc2c1C(c1ccc(Br)cc1)(C1CC1)C(=O)N2` (centres unmarked) [Example 200A, 4-amino-5-(4-bromophenyl)-5-cyclopropyl-2-(8-(3,3,3-trifluoropropyl)imidazo[1,2-a]pyrazin-6-yl)-5H-pyrrolo[2,3-d]pyrimidin-6(7H)-one], in that order: 96% and 457 nM.
For `CC1(c2ccc(F)cc2)C(=O)Nc2nc(-c3cn4c(C#N)cnc4c(CCC(F)(F)C(F)(F)F)n3)nc(N)c21` (centres unmarked) [Example 273A, 6-(4-Amino-5-(4-fluorophenyl)-5-methyl-6-oxo-6,7-dihydro-5H-pyrrolo[2,3-d]pyrimidin-2-yl)-8-(3,3,4,4,4-pentafluorobutyl)imidazo[1,2-3a]pyrazine-3-carbonitrile], in that order: 81% and 61 nM.
Consider `CC1(c2ccc(Cl)c(F)c2)C(=O)Nc2nc(-c3cn4ccnc4c(CCCC(F)(F)F)n3)nc(N)c21` (centres unmarked) [Example 204B, 4-amino-5-(4-chloro-3-fluorophenyl)-5-methyl-2-(8-(4,4,4-trifluorobutyl)imidazo[1,2-a]pyrazin-6-yl)-5H-pyrrolo[2,3-d]pyrimidin-6(7H)-one], for which the Emax was determined as 110% and a half-maximal effect (EC50) was put at 14 nM.
For `Cc1ccc(C2(C)C(=O)Nc3nc(-c4cn5ccnc5c(Cc5ccc(F)cc5)n4)nc(N)c32)cn1` (centres unmarked) [Example 105A, 4-amino-2-(8-(4-fluorobenzyl)imidazo[1,2-a]pyrazin-6-yl)-5-methyl-5-(6-methylpyridin-3-yl)-5H-pyrrolo[2,3-d]pyrimidin-6(7H)-one], in that order: 102% and 384 nM.
For `Cc1cnc2c(Cc3ccc(F)cc3)nc(-c3nc(N)c4c(n3)NC(=O)C4(C)c3ccc(F)cn3)cn12` (centres unmarked) [Example 163B, 4-amino-2-(8-(4-fluorobenzyl)-3-methylimidazo[1,2-a]pyrazin-6-yl)-5-(5-fluoropyridin-2-yl)-5-methyl-5H-pyrrolo[2,3-d]pyrimidin-6(7H)-one] the same measures were 84% and 230 nM.
For `Cc1nc(C2(C3CC3)C(=O)Nc3nc(-c4cn5ccnc5c(CCCC(F)(F)F)n4)nc(N)c32)ccc1F` (single isomer, unassigned) [Example 362B, 4-amino-5-cyclopropyl-5-(5-fluoro-6-methylpyridin-2-yl)-2-(8-(4,4,4-trifluorobutyl)imidazo[1,2-a]pyrazin-6-yl)-5H-pyrrolo[2,3-d]pyrimidin-6(7H)-one], in that order: 140% and 384 nM.
In the case of `CC1(c2ccc(F)cc2)C(=O)Nc2nc(-c3cn4ccnc4c(Cc4cccc(Cl)c4)n3)nc(N)c21` (centres unmarked) [Example 94A, 4-amino-2-(8-(3-chlorobenzyl)imidazo[1,2-a]pyrazin-6-yl)-5-(4-fluorophenyl)-5-methyl-5H-pyrrolo[2,3-d]pyrimidin-6(7H)-one], the Emax was 108% and the response was half-maximal at 5 nM (EC50).
In the case of `CC1(C)CN(c2nc(-c3cn4ccnc4c(CCC(F)(F)C(F)(F)F)n3)nc3c2C(C)(c2ccc(F)cc2)C(=O)N3)C1` (centres unmarked) [Example 302A, 4-(3,3-dimethylazetidin-1-yl)-5-(4-fluorophenyl)-5-methyl-2-(8-(3,3,4,4,4-pentafluorobutyl)imidazo[1,2-a]pyrazin-6-yl)-5H-pyrrolo[2,3-d]pyrimidin-6(7H)-one], the Emax stood at 105% and the concentration giving a half-maximal response (EC50) was 551 nM.
For `Nc1nc(-c2cn3ccnc3c(CCC(F)(F)F)n2)nc2c1C(c1ccc(C(F)(F)F)cn1)(C1CC1)C(=O)N2` (centres unmarked) [Example 340A, 4-amino-5-cyclopropyl-5-(5-(trifluoromethyl)pyridin-2-yl)-2-(8-(3,3,3-trifluoropropyl)imidazo[1,2-a]pyrazin-6-yl)-5H-pyrrolo[2,3-d]pyrimidin-6(7H)-one] the same measures were 129% and 808 nM.
For `CCc1nc(C2(C)C(=O)Nc3nc(-c4cn5ccnc5c(CCC(F)(F)C(F)(F)F)n4)nc(N)c32)no1` (centres unmarked) [Example 320B, 4-amino-5-(5-ethyl-1,2,4-oxadiazol-3-yl)-5-methyl-2-(8-(3,3,4,4,4-pentafluorobutyl)imidazo[1,2-a]pyrazin-6-yl)-5H-pyrrolo[2,3-d]pyrimidin-6(7H)-one] the same measures were 204% and 85 nM.
